How the values were obtained:
[1] = target: MMP-9 (Homo sapiens, UniProt P14780); test: In vitro metalloprotease inhibition, fluorogenic peptide assay; type: biochemical; details: MCA peptide substrate 4 μM, room temperature, pH 7.5
Description: (§1) Briefly, 4-aminophenylmercuric acetate (APMA) or trypsin activated MMPs were incubated with various concentrations of the inhibitor compound at room temperature for 5 minutes.
(§2) MCA-ProLeuGlyLeuDpaAlaArgNH^2, wherein MCA is methoxycoumarin and Dpa is 3-(2,4-dinitrophenyl)-L-2,3-diaminopropionyl alanine.
(§3) The buffer used for assays contained 100 mM Tris-HCl, 100 mM NaCl, 10 mM CaCl2 and 0.05 percent polyethyleneglycol (23) lauryl ether at a pH value of 7.5.

[2] = target: T1, MMP-2 (Homo sapiens, UniProt P08253); test: as above; type: biochemical; details: MCA peptide substrate 4 μM, room temperature, pH 7.5
T1 sequence (P08253 110-660): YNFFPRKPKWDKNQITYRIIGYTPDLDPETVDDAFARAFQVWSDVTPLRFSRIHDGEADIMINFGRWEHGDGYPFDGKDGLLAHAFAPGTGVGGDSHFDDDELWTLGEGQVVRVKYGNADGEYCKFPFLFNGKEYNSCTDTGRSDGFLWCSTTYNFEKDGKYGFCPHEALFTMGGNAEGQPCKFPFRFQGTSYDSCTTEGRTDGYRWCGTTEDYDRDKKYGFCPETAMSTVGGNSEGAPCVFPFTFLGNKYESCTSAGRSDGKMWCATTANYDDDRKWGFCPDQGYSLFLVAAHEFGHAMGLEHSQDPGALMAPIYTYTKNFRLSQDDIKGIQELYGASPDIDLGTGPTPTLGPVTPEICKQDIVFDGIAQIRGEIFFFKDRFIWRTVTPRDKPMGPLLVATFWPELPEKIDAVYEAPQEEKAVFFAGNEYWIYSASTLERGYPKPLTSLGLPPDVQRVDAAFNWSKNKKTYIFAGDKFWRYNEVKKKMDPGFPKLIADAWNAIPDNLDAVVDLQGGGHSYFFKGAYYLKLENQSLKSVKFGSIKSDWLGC
Description: as §1, §2, §3

[3] = target: MMP-3 (Homo sapiens, UniProt P08254); test: as above; type: biochemical; details: MCA peptide substrate 4 μM, room temperature, pH 7.5
Description: as §1, §2, §3

[4] = target: MMP-8 (Homo sapiens, UniProt P22894); test: as above; type: biochemical; details: MCA peptide substrate 4 μM, room temperature, pH 7.5
Description: as §1, §2, §3

[5] = target: T2, recombinant human MMP-1 (Homo sapiens, UniProt P03956); test: as above; type: biochemical; details: APMA-activated enzyme, MCA peptide substrate 4 μM, room temperature, pH 7.5
T2 construct: made in house; host or cells: transfected HT-1080 cells
T2 sequence (P03956 100-469): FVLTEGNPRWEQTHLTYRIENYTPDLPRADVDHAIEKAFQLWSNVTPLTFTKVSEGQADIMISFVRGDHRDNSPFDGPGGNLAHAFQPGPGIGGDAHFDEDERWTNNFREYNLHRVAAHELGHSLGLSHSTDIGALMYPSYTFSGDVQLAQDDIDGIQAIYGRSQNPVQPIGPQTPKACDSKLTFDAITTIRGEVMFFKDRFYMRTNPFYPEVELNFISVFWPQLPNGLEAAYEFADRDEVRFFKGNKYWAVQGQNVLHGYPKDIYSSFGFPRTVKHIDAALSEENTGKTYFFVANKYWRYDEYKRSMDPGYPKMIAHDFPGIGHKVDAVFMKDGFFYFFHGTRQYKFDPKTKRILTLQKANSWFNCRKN
Description: as §1
(§4) More specifically, recombinant human MMP-13 and MMP-1 enzymes were prepared in laboratories of the assignee. MMP-13 was expressed in baculovirus as a proenzyme, and purified first over a heparin agarose column and then over a chelating zinc chloride column. The proenzyme was activated by APMA for use in the assay. MMP-1 expressed in transfected HT-1080 cells was provided by Dr. Howard Welgus of Washington University, St. Louis, Mo. The enzyme was also activated using APMA and was then purified over a hydroxamic acid column.
as §2, §3

[6] = target: T3, recombinant human MMP-13 (Homo sapiens, UniProt P45452); test: as above; type: biochemical; details: APMA-activated enzyme, MCA peptide substrate 4 μM, room temperature, pH 7.5
T3 construct: made in house
Description: as §1, §4, §2, §3

[7] = test system: angiogenesis in the cornea of a mouse; test: In vivo angiogenesis assay (corneal micropocket assay); design: species or system mouse (C57Bl/6); details: area of corneal neovascularization, bFGF pellet, dosed daily, scored at day five; exemplary dose 50 mg/kg bid, po
Description: The study of angiogenesis depends on a reliable and reproducible model for the stimulation and inhibition of a neovascular response. The corneal micropocket assay provides such a model of angiogenesis in the cornea of a mouse. See, A Model of Angiogenesis in the Mouse Cornea; Kenyon, B M, et al., Investigative Ophthalmology & Visual Science, Jul.
In this assay, uniformly sized Hydron™ pellets containing bFGF and sucralfate were prepared and surgically implanted into the stroma mouse cornea adjacent to the temporal limbus. The pellets were formed by making a suspension of 20 μL sterile saline containing […] recombinant bFGF, 10 mg of sucralfate and 10 μL of 12 percent Hydron™ in ethanol. The slurry was then deposited on a 10×10 mm piece of sterile nylon mesh. After drying, the nylon fibers of the mesh were separated to release the pellets.
The corneal pocket was made by anesthetizing a 7 week old C57Bl/6 female mouse, then proptosing the eye with a jeweler's forceps. Using a dissecting microscope, a central, intrastromal linear keratotomy of approximately 0.6 mm in length was performed with a #15 surgical blade, parallel to the insertion of the lateral rectus muscle. Using a modified cataract knife, a lamellar micropocket was dissected toward the temporal limbus. The pocket was extended to within 1.0 mm of the temporal limbus. A single pellet was placed on the corneal surface at the base of the pocket with a jeweler's forceps. The pellet was then advanced to the temporal end of the pocket. Antibiotic ointment was then applied to the eye.
Mice were dosed on a daily basis for the duration of the assay. Dosing of the animals was based on bioavailability and overall potency of the compound. An exemplary dose is 50 mg/kg bid, po. Neovascularization of the corneal stroma begins at about day three and was permitted to continue under the influence of the assayed compound until day five. At day five, the degree of angiogenic inhibition was scored by viewing the neovascular progression with a slit lamp microscope.
The mice were anesthetized and the studied eye was once again proptosed. The maximum vessel length of neovascularization, extending from the limbal vascular plexus toward the pellet was measured. In addition, the contiguous circumferential zone of neovascularization was measured as clock hours, where 30 degrees of arc equals one clock hour. The area of angiogenesis was calculated as follows. [formula]
The studied mice were thereafter compared to control mice and the difference in the area of neovascularization was recorded.

[8] = test system: advanced, rapidly progressive, treatment-refractory solid tumor cancers; details: patients with colorectal, pancreatic, ovarian, prostate cancers; cited from earlier work

Chain of MMP-8 (P22894 101-467, species assumed): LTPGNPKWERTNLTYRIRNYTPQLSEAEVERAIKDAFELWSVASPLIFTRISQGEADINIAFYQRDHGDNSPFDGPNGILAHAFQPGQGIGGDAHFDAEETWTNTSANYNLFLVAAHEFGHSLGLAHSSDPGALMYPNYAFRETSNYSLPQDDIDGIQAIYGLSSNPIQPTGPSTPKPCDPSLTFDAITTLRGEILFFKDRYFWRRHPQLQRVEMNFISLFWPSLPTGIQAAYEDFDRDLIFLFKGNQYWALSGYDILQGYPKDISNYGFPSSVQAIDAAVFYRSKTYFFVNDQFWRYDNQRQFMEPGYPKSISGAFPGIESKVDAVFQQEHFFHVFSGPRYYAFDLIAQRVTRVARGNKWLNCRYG
Chain of MMP-3 (P08254 100-477, species assumed): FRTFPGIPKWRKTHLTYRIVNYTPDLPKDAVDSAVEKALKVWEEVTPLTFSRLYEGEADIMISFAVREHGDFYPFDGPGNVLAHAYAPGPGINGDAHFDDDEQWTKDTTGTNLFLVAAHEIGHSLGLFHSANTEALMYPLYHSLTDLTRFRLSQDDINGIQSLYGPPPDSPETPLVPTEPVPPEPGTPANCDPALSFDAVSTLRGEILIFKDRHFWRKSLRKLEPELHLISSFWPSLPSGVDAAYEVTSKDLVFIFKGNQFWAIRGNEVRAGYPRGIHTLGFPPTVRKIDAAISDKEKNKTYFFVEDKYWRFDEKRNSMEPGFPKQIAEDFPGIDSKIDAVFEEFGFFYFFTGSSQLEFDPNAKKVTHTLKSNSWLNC
Chain of MMP-9 (P14780 107-707 limits assumed, species assumed): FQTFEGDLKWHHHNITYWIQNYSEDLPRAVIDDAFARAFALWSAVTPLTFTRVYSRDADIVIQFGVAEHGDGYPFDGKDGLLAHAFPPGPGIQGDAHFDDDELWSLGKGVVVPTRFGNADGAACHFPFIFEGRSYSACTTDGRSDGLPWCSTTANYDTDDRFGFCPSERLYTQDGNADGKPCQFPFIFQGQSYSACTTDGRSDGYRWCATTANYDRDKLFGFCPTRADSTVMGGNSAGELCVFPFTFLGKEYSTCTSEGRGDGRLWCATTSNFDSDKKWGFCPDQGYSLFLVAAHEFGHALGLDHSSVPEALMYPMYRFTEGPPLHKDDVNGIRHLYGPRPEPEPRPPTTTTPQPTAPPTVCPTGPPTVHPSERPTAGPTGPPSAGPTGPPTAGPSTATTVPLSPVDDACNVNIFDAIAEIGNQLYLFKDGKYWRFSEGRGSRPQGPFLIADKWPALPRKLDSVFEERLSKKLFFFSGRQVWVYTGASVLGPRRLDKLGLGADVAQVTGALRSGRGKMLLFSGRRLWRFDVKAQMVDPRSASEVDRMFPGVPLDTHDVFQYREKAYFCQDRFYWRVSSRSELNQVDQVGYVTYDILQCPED

IC50 [1]	IC50 [2]	IC50 [3]	IC50 [4]	IC50 [5]	IC50 [6]	Compound	Percentage of Control [7]	effect on cancer-specific antigens used as surrogate markers for biological activity [8]
7 nM	1 nM	44 nM	4.1 nM	470 nM	1.2 nM	O=C(NO)C(O)(CO)CS(=O)(=O)c1ccc(Oc2ccccc2)cc1 (centres unmarked) [Example 2, N,2-dihydroxy-2-(hydroxymethyl)-3-[(4-phenoxyphenyl)-sulfonyl]propanamide]	53.4%	
20 nM	1 nM	166 nM	4 nM	6000 nM	3 nM	Cl.O=C(NO)C(O)(CN1CCOCC1)CS(=O)(=O)c1ccc(Oc2ccccc2)cc1 (stereo not drawn) [Example 3, N,α-dihydroxy-α-[[(4-phenoxyphenyl)sulfonyl]methyl]-4-morpholinepropanamide, monohydrochloride]	77.4%	
12.4 nM	0.4 nM	48.5 nM	4.5 nM	9000 nM	0.4 nM	Cc1ccc(Oc2ccc(S(=O)(=O)CC(O)(CO)C(=O)NO)cc2)cc1C (centres unmarked) [Example 4, 3-[[4-(3,4-dimethylphenoxy)phenyl]sulfonyl]-N,2-dihydroxy-2-(hydroxymethyl)propanamide]	65.2%	
3.4 nM	2.4 nM	26.8 nM	2.5 nM	> 10000 nM	1.3 nM	Cc1ccc(Oc2ccc(S(=O)(=O)CC(C)(O)C(=O)NO)cc2)cc1C (centres unmarked) [Example 5, 3-[[4-(3,4-dimethylphenoxy)phenyl]sulfonyl]-N,2-dihydroxy-2-methylpropanamide]	57.8%	
						CNC(=O)[C@@H](NC(=O)[C@H](CC(C)C)[C@H](O)C(=O)NO)C(C)(C)C [marimastat]		dose-related reduction in the rise of cancer-specific antigens
